In patent publication US7034208B1, “Ahas inhibiting herbicide resistant wheat and method for selection thereof” (BASF Aktiengellschaft, priority 1991, dated 2006):

Columns and labels:
[1] = test system: F1 hybrids FS1-FS4 x Fidel and Fidel wheat; experiment: Genetic Condition Studies Experiment 1, F1 hybrids sprayed; assay type: in vivo
Source text: Experiment 1: Six flats containing Metro Mix 350™ are planted with F1 hybrids derived from each of the following crosses: FS1×Fidel: FS2×Fidel; FS3×Fidel; FS4×Fidel and Fidel (susceptible, parental cultivar). One week later, the flats are sprayed, one flat per herbicide rate, with PURSUIT™ at 50, 100, 150, 200, and 250 g/ha to determine the genetic condition of the herbicide resistant trait in the selections, FS1-FS4. The herbicide is applied with a laboratory belt sprayer at a rate of 950 L/ha with a belt speed of 12.5 sec/rev using sprayer nozzle #40015E. Tween 20™ is used as the surfactant at 0.25% v/v in the herbicide solutions. Plants are rated 10 days after herbicide treatment.

[2] = test system: reciprocally crossed and selfed progeny of mutant wheat selections; experiment: Genetic Condition Studies Experiment 2, reciprocal crosses and selfed progeny; assay type: in vivo; settings: 200 g/ha postemergence
Source text: Experiment 2: This experiment continues the evaluation of the mutant wheat selections by examining herbicide resistance in reciprocal crossed and selfed material. Reciprocal crosses are made between M3 plants representing each of the original four mutant selections and between these selections and Fidel. Progeny of these crosses as well as selfed progeny of the plants used in the crosses are planted in 6 inch azalea pots in Metro Mix 350™. Ten pots of each cross are planted with two seeds planted per pot. Ten days later, all of the selfed and reciprocally crossed progeny are sprayed postemergence with PURSUIT™ at 200 g/ha. Herbicide treatment is applied as described in Experiment 1. Plants are thinned to one plant per pot (by removing the weaker of the two plants per pot) one week after herbicide treatment. There is 100% germination of seed from the mutant reciprocal crosses and greater than 90% germination of seed from the selfed mutants.

Structure (SMILES): CCc1cnc(C2=NC(C)(C(C)C)C(=O)N2)c(C(=O)O)c1 (stereo not shown) [PURSUIT, 5-ethyl-2-(4-isopropyl-4-methyl-5-oxo-2-imidazolin-2-yl)-nicotinic acid]
- rate at which Fidel is killed ([1]; Fidel, rated 10 days after treatment): 150 g/ha
- damage to Fidel ([1]; Fidel, rates of 50 and 100 g/ha): severely injured
- damage to F1 hybrids ([1]; hybrids FS1-FS4 x Fidel, 250 g/ha, rated 10 days after treatment): stunted but not killed
- damage to mutant crosses [2]: None of the mutant crosses is damaged
